The NIST ThermoML archive (doi:10.1021/je800529x)
Numbers after ± are expanded uncertainties.

Conditions: Liquid, Drop weight

O=C=O [carbon dioxide] + O
interfacial tension [mN/m]
Conditions	2000 kPa	4000 kPa	6000 kPa	8000 kPa	12000 kPa	17400 kPa	27000 kPa
293.15 K	62.4 ± 1.7	43.5 ± 1.3	34.9 ± 1	29.1 ± 0.8	25.1 ± 0.7	23.2 ± 0.8	18.9 ± 0.7
298.15 K	62.1 ± 1.7	45.1 ± 2.5	36.2 ± 1.3	30.6 ± 1.6	26.5 ± 1	24.9 ± 0.8	21.1 ± 0.6
299.15 K	61.8 ± 1.7	45.6 ± 1.3	36.5 ± 1.1	30.8 ± 1.1	26.9 ± 0.8	25 ± 1	21.3 ± 0.7
301.15 K	62 ± 2	46.1 ± 1.4	37.6 ± 1.3	32.8 ± 1.1	27.4 ± 0.8	25.8 ± 0.8	22.3 ± 1.3
303.15 K	62.1 ± 1.7	48.2 ± 1.5	39.7 ± 1.3	33.5 ± 1.1	27.7 ± 0.8	26.4 ± 0.8	25.7 ± 1.2
305.15 K	62.5 ± 1.7	49.1 ± 2.8	40.7 ± 2.3	34.8 ± 1.8	28.6 ± 2.4	27.4 ± 2.6	26.1 ± 2.5
307.15 K	61.5 ± 1.7	38.2 ± 3.3	31.5 ± 3.4	27.3 ± 2.9	18.5 ± 3.5	16.4 ± 4	16.1 ± 3.5
308.15 K	62.1 ± 2.4	39.3 ± 1.3	31.9 ± 0.9	27.4 ± 0.8	18.6 ± 0.6	16.6 ± 0.7	16.3 ± 0.5
309.15 K	64.9 ± 3.3	39.6 ± 6.3	32.1 ± 1.5	27.5 ± 0.8	19 ± 3	17.3 ± 1.3	16.6 ± 0.6
314.15 K	65.2 ± 1.8	42.9 ± 1.3	33.2 ± 1	28.5 ± 0.9	19.9 ± 0.7	17.8 ± 0.7	16.9 ± 0.7
333.15 K	66.6 ± 1.8	52.9 ± 1.5	43.1 ± 1.2	37.9 ± 1.1	31.2 ± 1	29.4 ± 0.9	28.8 ± 0.9
348.15 K	66.9 ± 1.8	53.2 ± 1.5	43.6 ± 1.2	38.6 ± 1.1	34.5 ± 1	31.5 ± 0.9	29.9 ± 0.8
373.15 K	67.7 ± 1.9	57.9 ± 1.6	47.5 ± 1.3	41.7 ± 1.2	37.6 ± 1.1	32.9 ± 0.9	32.1 ± 0.9
398.15 K	68.1 ± 1.9	58.9 ± 1.6	50.5 ± 1.4	44.6 ± 1.2	39.6 ± 1.1	36.1 ± 1	33.2 ± 0.9
